From patent US20250179103A1, “6-OXODECAHYDROPYRROLO[1,2-A][1,5]DIAZOCINE AND 6-OXODECAHYDRO-4H-PYRROLO[2,1-D][1,5]THIAZOCINE DERIVATIVES AS STAT3 AND STAT6 MODULATORS FOR THE TREATMENT OF CANCER AND INFLAMMATORY CONDITIONS” (Recludix Pharma, Inc., priority 2022, published 2025)

Key:
[1] = target: T1, Recombinant STAT6 protein (STAT6(W123-T658)) (Homo sapiens, UniProt P42226); assay: STAT6 Fluorescence Polarization (FP) Assay; type: binding; conditions: STAT6(W123-T658) 250 nM, probe 5-FAM-ApYKPFQDLI-NH2 2 nM, 45-minute incubation
T1 construct: Recombinant STAT6 protein (STAT6(W123-T658))
T1 sequence (P42226 123-658): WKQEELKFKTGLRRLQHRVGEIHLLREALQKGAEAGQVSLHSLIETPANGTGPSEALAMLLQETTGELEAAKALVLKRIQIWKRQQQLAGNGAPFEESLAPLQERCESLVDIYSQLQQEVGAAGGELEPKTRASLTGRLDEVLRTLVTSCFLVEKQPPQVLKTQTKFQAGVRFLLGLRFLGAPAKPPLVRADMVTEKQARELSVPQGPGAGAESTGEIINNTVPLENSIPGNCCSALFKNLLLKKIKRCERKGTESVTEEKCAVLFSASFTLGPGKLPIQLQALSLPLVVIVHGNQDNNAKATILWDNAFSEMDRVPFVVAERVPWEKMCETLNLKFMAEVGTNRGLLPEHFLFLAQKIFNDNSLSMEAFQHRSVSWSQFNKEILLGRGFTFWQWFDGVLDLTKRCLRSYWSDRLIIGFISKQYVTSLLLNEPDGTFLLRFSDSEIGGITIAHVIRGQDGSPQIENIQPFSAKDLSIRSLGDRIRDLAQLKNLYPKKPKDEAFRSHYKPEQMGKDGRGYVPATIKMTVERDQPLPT
Method: STAT6 Fluorescence Polarization (FP) Assay
An FP assay was developed to determine IC50 values for test substances. Recombinant STAT6 protein (STAT6(W123-T658)) at 250 nM was combined with a fluorescently labeled, phosphotyrosine peptide probe (5-FAM-ApYKPFQDLI-NH2) at 2 nM in FP buffer (10 mM HEPES pH 7.4, 50 mM NaCl, 1 mM EDTA, 0.05% Tween 20.2 mM DTT). 50 μL of STAT6-probe mixture was added to serial diluted compounds in black, 96-well plates (Greiner BioOne 655076) to a final concentration of 1% DMSO. Reaction components were mixed, and FP was measured after 45-minute incubation at room temperature using a Tecan Spark multimode plate reader. FP signal (mP) was plotted against the log concentration of the test substances and IC50 values were calculated by nonlinear regression analysis using GraphPad Prism software. For STAT6 FP assay, A=≤300 nM; B=>300-3000 nM; C=>3-30 μM; and D=>30 μM.

[2] = target: T2, Recombinant STAT3 protein (STAT3(G127-I722)) (Homo sapiens, UniProt P40763); assay: STAT3 Fluorescence Polarization (FP) Assay; type: binding; conditions: STAT3(G127-I722) 25 nM, probe 5-FAM-GpYLPQTV-NH2 2 nM, 45-minute incubation
T2 construct: Recombinant STAT3 protein (STAT3(G127-I722))
Method: STAT3 Fluorescence Polarization (FP) Assay
An FP assay was developed to determine IC50 values for test substances. Recombinant STAT3 protein (STAT3(G127-I722)) at 25 nM was combined with a fluorescently labeled, phosphotyrosine peptide probe (5-FAM-GpYLPQTV-NH2) at 2 nM in FP buffer (10 mM HEPES pH 7.4, 50 mM NaCl, 1 mM EDTA, 0.05% Tween 20.2 mM DTT). 50 μL of STAT3-probe mixture was added to serial diluted compounds in black, 96-well plates (Greiner BioOne 655076) to a final concentration of 1% DMSO. Reaction components were mixed, and FP was measured after 45-minute incubation at room temperature using a Tecan Spark multimode plate reader. FP signal (mP) was plotted against the log concentration of the test substances and IC50 values were calculated by nonlinear regression analysis using GraphPad Prism software. For STAT3 FP assay, A=≤100 nM; B=>100-1000 nM; C=>1-10 μM; and D=>10 μM.

T2 sequence (P40763 127-722): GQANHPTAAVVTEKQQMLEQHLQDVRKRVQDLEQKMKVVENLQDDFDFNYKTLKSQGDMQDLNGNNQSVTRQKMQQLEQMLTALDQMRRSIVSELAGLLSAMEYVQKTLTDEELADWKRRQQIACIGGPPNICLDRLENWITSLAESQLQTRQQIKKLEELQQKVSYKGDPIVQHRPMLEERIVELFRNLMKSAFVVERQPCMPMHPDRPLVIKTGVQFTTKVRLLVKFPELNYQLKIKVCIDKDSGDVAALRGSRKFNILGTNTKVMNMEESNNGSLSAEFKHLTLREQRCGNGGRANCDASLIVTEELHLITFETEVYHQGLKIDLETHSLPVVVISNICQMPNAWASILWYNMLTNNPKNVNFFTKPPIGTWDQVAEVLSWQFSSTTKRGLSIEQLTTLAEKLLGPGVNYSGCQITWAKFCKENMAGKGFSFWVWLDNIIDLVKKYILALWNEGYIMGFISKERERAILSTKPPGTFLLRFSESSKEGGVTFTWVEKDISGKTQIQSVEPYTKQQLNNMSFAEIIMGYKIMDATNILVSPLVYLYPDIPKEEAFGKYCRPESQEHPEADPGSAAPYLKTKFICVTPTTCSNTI

Row | Structure (SMILES) | IC50 [1] | IC50 [2]
1 | CC(=O)N1CC[C@H]2CC[C@@H](C(=O)NC3COc4ccc(Cl)cc4C3)N2C(=O)[C@@H](NC(=O)c2cc3cc(C(F)(F)P(=O)(O)O)ccc3s2)C1 (stereo partly drawn) [Compound 127, ((2-(((5S,8S,10aR)-3-acetyl-8-((6-chlorochroman-3-yl)carbamoyl)-6-oxodecahydropyrrolo[1,2-a][1,5]diazocin-5-yl)carbamoyl)benzo[b]thiophen-5-yl)difluoromethyl)phosphonic acid] | 300 to 3000 nM | 100 to 1000 nM
2 | CC(=O)N1CC[C@H]2CC[C@@H](C(=O)N3C[C@@H](C#N)C[C@@H]3Cc3ccccc3)N2C(=O)[C@@H](NC(=O)c2cc3cc(C(F)(F)P(=O)(O)O)ccc3s2)C1 [Compound 42, ((2-(((5S,8S,10aR)-3-acetyl-8-((2R,4S)-2-benzyl-4-cyanopyrrolidine-1-carbonyl)-6-oxodecahydropyrrolo[1,2-a][1,5]diazocin-5-yl)carbamoyl)benzo[b]thiophen-5-yl)difluoromethyl)phosphonic acid] | 300 to 3000 nM | 1000 to 10000 nM
3 | Cc1ccc2onc(C(=O)N3CC[C@H]4CC[C@@H](C(=O)N5CCN(S(C)(=O)=O)CC5)N4C(=O)[C@@H](NC(=O)c4ccc5ccc(C(F)P(=O)(O)O)cc5c4)C3)c2c1 (stereo partly drawn) [Compound 368, (fluoro(7-(((5S,8S,10aR)-3-(5-methylbenzo[d]isoxazole-3-carbonyl)-8-(4-(methylsulfonyl)piperazine-1-carbonyl)-6-oxodecahydropyrrolo [1,2-a][1,5]diazocin-5-yl)carbamoyl)naphthalen-2-yl)methyl)phosphonic acid] | ≤ 300 nM | > 10000 nM
4 | CCC(=O)N1CC[C@@H](NC(=O)[C@@H]2CC[C@@H]3CCN(C(C)=O)C[C@H](NC(=O)c4cc5cc(C(F)(F)P(=O)(O)O)ccc5[nH]4)C(=O)N32)C1 [Compound 34, ((2-(((5S,8S,10aR)-3-aceytl-6-oxo-8-(((R)-1-propionylpyrrolidin-3-yl)carbamoyl)decahydropyrrolo[1,2-a][1,5]diazocin-5-yl)carbamoyl)-1H-indol-5-yl)difluoromethyl)phosphonic acid] | 300 to 3000 nM | 100 to 1000 nM

Now from value to compound:

Row | IC50 [1] | IC50 [2] | Structure (SMILES)
5 | 3000 to 30000 nM | ≤ 100 nM | COc1cc(CN2CC[C@H]3CC[C@@H](C(=O)N4CC(c5cccnc5)C4)N3C(=O)[C@@H](NC(=O)c3cc4cc(C(F)(F)P(=O)(O)O)ccc4s3)C2)ccc1-n1cnc(C)c1 [Compound 275, (difluoro(2-(((5S,8S,10aR)-3-(3-methoxy-4-(4-methyl-1H-imidazol-1-yl)benzyl)-6-oxo-8-(3-(pyridin-3-yl)azetidine-1-carbonyl)decahydropyrrolo[1,2-a][1,5]diazocin-5-yl)carbamoyl)benzo[b]thiophen-5-yl)methyl)phosphonic acid]
6 | 300 to 3000 nM | 100 to 1000 nM | CC(=O)N1CC[C@H]2CC[C@@H](C(=O)Nc3ccc4onc(C)c4c3)N2C(=O)[C@@H](NC(=O)c2cc3cc(C(F)(F)P(=O)(O)O)ccc3s2)C1 [Compound 68, ((2-(((5S,8S,10aR)-3-acetyl-8-((3-methylbenzo[d]isoxazol-5-yl)carbamoyl)-6-oxodecahydropyrrolo[1,2-a][1,5]diazocin-5-yl)carbamoyl)benzo[b]thiophen-5-yl)difluoromethyl)phosphonic acid]
7 | 300 to 3000 nM | 1000 to 10000 nM | CN(C)C(=O)[C@@H]1CC[C@@H]2CCN(c3ccccc3)C[C@H](NC(=O)c3cc4cc(C(F)(F)P(=O)(O)O)ccc4[nH]3)C(=O)N21 [Compound 223, ((2-(((5S,8S,10aR)-8-(dimethylcarbamoyl)-6-oxo-3-phenyldecahydropyrrolo[1,2-a][1,5]diazocin-5-yl)carbamoyl)-1H-indol-5-yl)difluoromethyl)phosphonic acid]
8 | 3000 to 30000 nM | 1000 to 10000 nM | CC(=O)N1CC[C@H]2CC[C@@H](C(=O)N(C)c3ccc(C#N)cc3)N2C(=O)[C@@H](NC(=O)c2cc3cc(C(F)(F)P(=O)(O)O)ccc3s2)C1 [Compound 123, ((2-(((5S,8S,10aR)-3-acetyl-8-((4-cyanophenyl)(methyl)carbamoyl)-6-oxodecahydropyrrolo[1,2-a][1,5]diazocin-5-yl)carbamoyl)benzo[b]thiophen-5-yl)difluoromethyl)phosphonic acid]
